Measured values from patent publication US6663881B2 (priority 1993, dated 2003).

Tests used:
[1] = system: balloon traumatized pig femoral artery; experiment: Sustained release adventitial wraps on balloon traumatized pig femoral artery (Table 16, Group 12); assay type: in vivo; settings: Group 12: 30% wt/wt loaded silicone wraps
Text: To determine the efficacy of the local, sustained release dosage forms of cytochalasin B or taxol to inhibit restenosis, cytochalasin B or taxol in a supporting structure, e.g., a “wrap,” was applied to the adventitial tissue surrounding a balloon traumatized rabbit carotid artery (Groups 1-11) or a balloon traumatized pig femoral artery (Group 12) (Table 16).
While there was intimal proliferation in the arteries 3 weeks later, the proliferation was still less than the proliferation observed for the controls.

[2] = system: Vascular smooth muscle cells (BO54); experiment: Scratch-migration assay; assay type: cell-based, baboon; set-up: key: −=no toxicity; +1=minimal; +2=mild; +3=moderate; +4=marked toxicity; settings: Continuous Exposure
Description: (§1) Scratch assays to determine the extent of smooth muscle cell migration inhibition by cytochalasin B were performed in accordance with the following protocol:
(§2) Vascular smooth muscle cells (BO54) were derived from explants of baboon aortic smooth muscle, as described in Example 10. The cells were grown in flat bottom, six well tissue culture plates, which hold about 5 ml of medium. The vascular smooth muscle cells were plated at 200,000 cells/well and placed at 37° C. in a humidified 5% CO2 incubator for 18 hours. The wells were then scratched with a sterile portion of a single edge razor blade that was held by clamp or pliers and was brought aseptically into contact with the bottom of the well at a 90° angle. The cells from a small area along the scratch were removed by a sterile cotton tipped applicator while the blade was in contact with the bottom of the well. After incubation, the presence of cells in the “scratched” area is indicative of cell migration across the scratch line.
(§3) Briefly, a stock solution of cytochalasin B (Sigma Chemical Co.) in dimethyl sulfoxide (DMSO) at 1 mg/ml was prepared. Test dilutions of cytochalasin B or control medium were added. Each experiment included two sets of plates:
(§4) A set: Test agent exposure for 1, 3, 6, 8 and 10 days only; and
(§5) B set: Test agent exposure for 1, 3, 6, 8 and 10 days, followed by a seven day recovery time with control medium.
Both sets of plates were fixed (10% formalin in PBS) and stained (0.02% crystal violet) at the end of the timed exposures. Test concentrations for cytochalasin B were 1, 0.1 and 0.01 μg/ml, and a negative medium control was included. […]
In this Table, “M” indicates Migration Grade, wherein −=no migration; +1=minimal; +2=mild; +3=moderate; and +4=marked (maximum density; limit of cell contact inhibition) migration of vascular smooth muscle cells into the cleared area adjacent to the scratch. […] The migration results are expressed as “Grade in the Cleared Area of the Well/Grade in an Undisturbed Region of the Well.” The toxicity values represent a grade for all cells in each well.

[3] = 7 day intravenous toxicity study in rats (Table 11); assay type: in vivo; settings: 10 μg/ml IV four times a day for 7 days (800 μg/kg daily)
Description: To determine the toxicity of cytochalasin B, rats (4 male and 4 female) were injected with 10 μg/ml cytochalasin B four times a day for 7 days (Table 11). Data regarding body weight changes, food consumption, food efficiency, hematology parameters, coagulation parameters, serum chemistry parameters, and gross necropsy findings were collected. […] There were no gross or microscopic changes detected in the heart to account for the elevation. Thus, daily administration of cytochalasin B to rats at a dose of 800 μg/kg (for a total injected dose of 5600 μg/kg) may have an effect on heart weight of female (but not male) rats. However, clotted blood was not routinely removed from the heart lumens prior to weighing the heart.

[4] = system: Vascular smooth muscle cells (BO54); experiment: Scratch-migration assay; assay type: cell-based, baboon; set-up: key to Migration Grade in an Undisturbed Region of the Well / Migration Grade in the Cleared Area of the Well: −=no migration; +1=minimal; +2=mild; +3=moderate; +4=marked (maximum density; limit of cell contact inhibition) migration
Description: as §1, §2, §3, §4, §5
Both sets of plates were fixed (10% formalin in PBS) and stained (0.02% crystal violet) at the end of the timed exposures. Test concentrations for cytochalasin B were 1, 0.1 and 0.01 μg/ml, and a negative medium control was included. Fresh medium and drug were supplied 3 times per week.
In this Table, “M” indicates Migration Grade, wherein −=no migration; +1=minimal; +2=mild; +3=moderate; and +4=marked (maximum density; limit of cell contact inhibition) migration of vascular smooth muscle cells into the cleared area adjacent to the scratch. In this Table, “T” denotes a morphological Toxicity Grade, wherein −=no toxicity; +1=minimal; +2=mild; +3=moderate; and +4=marked toxicity. The migration results are expressed as “Grade in the Cleared Area of the Well/Grade in an Undisturbed Region of the Well.” The toxicity values represent a grade for all cells in each well.

[5] = system: Vascular smooth muscle (BO54) cells; assay type: cell-based, baboon
[6] = system: balloon traumatized left carotid artery; experiment: Inter-arterial infusion of crystalline cytochalasin B in balloon traumatized rat carotid artery; assay type: in vivo, Sprague-Dawley rats
Description: Another study employed twenty, male, Sprague-Dawley rats. The rats underwent balloon trauma to their left carotid artery, followed by inter-arterial infusion of a solution containing 1 mg crystalline cytochalasin B in […] vehicle (Hanks sterile salt solution with 0.5% Cremophor) or a diluent (saline) control. Animals were sacrificed immediately after infusion, and 2, 4, 7 and 14 days post-trauma and infusion. Post-sacrifice, the left and the right (control) carotid arteries were removed. Samples of arteries were obtained for quantitation of ^3H-cytochalasin B by oxidation and scintillation counting, histopathology, autoradiography and vascular morphometry. Histopathology documented uniform, circumferential balloon trauma in the arterial wall of the left carotid arteries.

[7] = 7-day Recovery Post Exposure, Day 1, 0.01 μg/mL
[8] = 7-day Recovery Post Exposure, Day 1, 0.1 μg/mL
[9] = 7-day Recovery Post Exposure, Day 1, 1.0 μg/mL
[10] = 7-day Recovery Post Exposure, Day 3, 0.01 μg/mL
[11] = 7-day Recovery Post Exposure, Day 3, 0.1 μg/mL
[12] = 7-day Recovery Post Exposure, Day 6, 0.1 μg/mL
[13] = 7-day Recovery Post Exposure, Day 6, 1.0 μg/mL
[14] = 7-day Recovery Post Exposure, Day 8, 0.01 μg/mL
[15] = 7-day Recovery Post Exposure, Day 8, 0.1 μg/mL
[16] = 7-day Recovery Post Exposure, Day 8, 1.0 μg/mL
[17] = 7-day Recovery Post Exposure, Day 10, 0.01 μg/mL
[18] = 7-day Recovery Post Exposure, Day 10, 0.1 μg/mL
[19] = 7-day Recovery Post Exposure, Day 10, 1.0 μg/mL
[20] = Continuous Exposure, Day 1, 0.01 μg/mL
[21] = Continuous Exposure, Day 1, 0.1 μg/mL
[22] = Continuous Exposure, Day 6, 0.01 μg/mL
[23] = Continuous Exposure, Day 6, 0.1 μg/mL
[24] = Continuous Exposure, Day 8, 0.01 μg/mL
[25] = Continuous Exposure, Day 8, 0.1 μg/mL
[26] = Continuous Exposure, Day 10, 0.01 μg/mL
[27] = Continuous Exposure, Day 10, 0.1 μg/mL

C=C1[C@@H](C)[C@H]2[C@H](Cc3ccccc3)NC(=O)[C@]23OC(=O)/C=C/[C@H](O)CCC[C@@H](C)C/C=C/[C@H]3[C@@H]1O [cytochalasin B]
intimal proliferation [1]: significantly inhibited intimal proliferation for the first two weeks | Toxicity Grade ([2]; Day 6, 1.0 μg/mL): +4 | Toxicity Grade ([2]; Day 8, 1.0 μg/mL): +4 | Toxicity Grade ([2]; Day 10, 1.0 μg/mL): +4 | adverse effect [3]: elevation of the mean relative heart weight in treated female animals | morphological toxicity grade ([4]; 0.1 μg/ml, continuous exposure): −3 to +1 | Migration Grade in an Undisturbed Region of the Well [4, 7]: +4 | Migration Grade in the Cleared Area of the Well [4, 7]: +3 | Migration Grade in an Undisturbed Region of the Well [4, 8]: +4 | Migration Grade in the Cleared Area of the Well [4, 8]: +3 | Migration Grade in an Undisturbed Region of the Well [4, 9]: +3 | Migration Grade in the Cleared Area of the Well [4, 9]: +2 | Migration Grade in an Undisturbed Region of the Well [4, 10]: +4 | Migration Grade in the Cleared Area of the Well [4, 10]: +3 | Migration Grade in an Undisturbed Region of the Well [4, 11]: +4 | Migration Grade in the Cleared Area of the Well [4, 11]: +3 | Migration Grade in an Undisturbed Region of the Well ([4]; 7-day Recovery Post Exposure, Day 6, 0.01 μg/mL): +4/+4 | Migration Grade in an Undisturbed Region of the Well [4, 12]: +4 | Migration Grade in the Cleared Area of the Well [4, 12]: +3 | Migration Grade in an Undisturbed Region of the Well [4, 13]: +3 | Migration Grade in the Cleared Area of the Well [4, 13]: +2 | Migration Grade in an Undisturbed Region of the Well [4, 14]: +4/+4 | Migration Grade in the Cleared Area of the Well [4, 14]: +4/+4 | Migration Grade in an Undisturbed Region of the Well [4, 15]: +4 | Migration Grade in the Cleared Area of the Well [4, 15]: +3 | Migration Grade in an Undisturbed Region of the Well [4, 16]: +3 | Migration Grade in the Cleared Area of the Well [4, 16]: +2 | Migration Grade in an Undisturbed Region of the Well [4, 17]: +4/+4 | Migration Grade in the Cleared Area of the Well [4, 17]: +4/+4 | Migration Grade in an Undisturbed Region of the Well [4, 18]: +4/+4 | Migration Grade in the Cleared Area of the Well [4, 18]: +4/+4 | Migration Grade in an Undisturbed Region of the Well [4, 19]: +3 | Migration Grade in the Cleared Area of the Well [4, 19]: +2 | Migration Grade in an Undisturbed Region of the Well [4, 20]: +3 | Migration Grade in the Cleared Area of the Well [4, 20]: +1 | Migration Grade in an Undisturbed Region of the Well [4, 21]: +3 | Migration Grade in the Cleared Area of the Well [4, 21]: +1 | Migration Grade in an Undisturbed Region of the Well ([4]; Continuous Exposure, Day 1, 1.0 μg/mL): +2 | Migration Grade in an Undisturbed Region of the Well ([4]; Continuous Exposure, Day 3, 0.1 μg/mL): +4 | Migration Grade in an Undisturbed Region of the Well [4, 22]: +4 | Migration Grade in the Cleared Area of the Well [4, 22]: +3 | Migration Grade in an Undisturbed Region of the Well [4, 23]: +4 | Migration Grade in the Cleared Area of the Well [4, 23]: +2 | Migration Grade in an Undisturbed Region of the Well ([4]; Continuous Exposure, Day 6, 1.0 μg/mL): +2 | Migration Grade in an Undisturbed Region of the Well [4, 24]: +4 | Migration Grade in the Cleared Area of the Well [4, 24]: +3 | Migration Grade in an Undisturbed Region of the Well [4, 25]: +4 | Migration Grade in the Cleared Area of the Well [4, 25]: +2 | Migration Grade in an Undisturbed Region of the Well ([4]; Continuous Exposure, Day 8, 1.0 μg/mL): +2 | Migration Grade in an Undisturbed Region of the Well [4, 26]: +4 | Migration Grade in the Cleared Area of the Well [4, 26]: +3 | Migration Grade in an Undisturbed Region of the Well [4, 27]: +4 | Migration Grade in the Cleared Area of the Well [4, 27]: +2 | Migration Grade in an Undisturbed Region of the Well ([4]; Continuous Exposure, Day 10, 1.0 μg/mL): +2 | MED, DNA assay ([5]; 5 minute exposure): 10 µg/mL | DNA synthesis inhibition compared with protein synthesis inhibition ([5]; 24 hour assays, 5% FBS, FIGS. 10A-10D): to a greater extent than they inhibited protein synthesis | MED, DNA synthesis assay ([5]; 24 hour exposure): 0.1 µg/mL | amount present over the treated length of artery ([6]; day 0): approximately 8 ug | amount present over the treated length of artery ([6]; day 2): less than 2 ng | crystals by autoradiography ([6]; day 4): not detectable by autoradiography | mean luminal area and neointimal area vs diluent control ([6]; five treated rats): higher mean luminal area and a smaller neointimal area | neointima formation vs diluent treated rats ([6]; morphometric analysis): no statistically significant reduction in neointima formation
